Source: PubChem BioAssay (NCI)
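A five-concentration, 48-hour dose response in 96-well plates underlies each endpoint, interpolated linearly between surrounding concentrations. Definition used: TGI = concentration required for complete inhibition of growth.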

What was measured:
Assay in all cases: NCI tumour cell line growth inhibition, 48 h
[1] = test system: ACHN renal
[2] = test system: MALME-3M melanoma
[3] = test system: RPMI-8226 leukemia
[4] = test system: RXF 393 renal
[5] = test system: SF-268 CNS
[6] = test system: SF-539 CNS
[7] = test system: SN12C renal
[8] = test system: SNB-19 CNS
[9] = test system: UACC-257 melanoma
[10] = test system: CCRF-CEM leukemia
[11] = test system: SNB-75 CNS

SMILES	TGI [1] [µM]	TGI [2] [µM]	TGI [3] [µM]	TGI [4] [µM]	TGI [5] [µM]	TGI [6] [µM]	TGI [7] [µM]	TGI [8] [µM]	TGI [9] [µM]	TGI [10] [µM]	TGI [11] [µM]
COC[C@@H](C[C@H]1O[C@@](O)([C@H](O)[C@@H]2C[C@H](OC)[C@@H](O)CC/C=C(C)/C=C/[C@@H](O[C@@H]3O[C@@H](C)[C@H](OC)[C@@H](O)[C@@H]3O)[C@H](C)/C=C(C)/C=C(C)/C=C(\C)C(=O)O2)[C@H](C)[C@@H](O)[C@H]1C)O[C@H]1C[C@](C)(O)[C@@H](O[C@H]2C[C@@H](OC)[C@H](O)[C@@H](C)O2)C(C)O1 (stereo partly drawn)	> 100	> 55.5	> 100	> 100	> 100	> 100	> 100	> 100	26.5	–	–
CCOc1cn(C2CC(O)C(CO)O2)c(=O)[nH]c1=O (stereo not drawn)	> 100	> 100	> 100	> 100	> 100	–	> 100	> 100	> 100	> 100	> 100
COc1cc(/C=C2\C(=O)N(c3ccccc3)C(c3ccccc3)S2(=O)=O)cc(OC)c1OC (stereo not drawn)	> 100	> 100	92.3	92.2	> 100	> 100	> 100	> 100	> 100	56.8	–
C[C@]12CCC(=O)O[C@H]1CCCCO2	–	> 100	–	> 100	> 100	> 100	> 100	–	> 100	> 100	> 100
Cc1nc(-c2cc3cc([N+](=O)[O-])ccc3oc2=O)cs1	> 100	–	> 100	> 100	> 100	> 100	> 100	> 100	> 100	> 100	94.8
CC(C)=CCC/C(C)=C/C=C/C(C)=C/C=C/C(C)=C/C=C/C=C(C)/C=C/C=C(C)/C=C/[C@H]1C(C(C)(C)O)CC[C@]1(C)O (stereo partly drawn)	45.5	–	54.5	45.4	42.4	> 100	–	–	59.2	34	–
CC1=NNC(N)=N/C1=C\C(Sc1ccc(Cl)cc1)c1ccc([N+](=O)[O-])cc1 (stereo not drawn)	> 100	> 100	> 100	> 100	> 100	–	> 100	> 100	> 100	> 100	–
OCC(O)COCn1nncc1Cn1ncc2c(SCc3ccccc3)ncnc21 (stereo not drawn)	> 100	–	–	–	41.1	> 100	> 100	> 100	> 100	> 100	–
O=C1CSC(c2cccc(Oc3ccccc3)c2)N1c1ccc(Cl)cc1 (stereo not drawn)	75	56.7	–	73.3	> 100	> 100	> 100	> 100	46.5	> 100	95.8
Nc1nc(N)c2ncn(-c3ccc(Cl)cc3)c2n1	> 100	> 100	–	73.5	–	80.5	> 100	–	> 100	66.1	59.1
Cc1ccc([N+](=O)[O-])cc1S(=O)(=O)Nc1ccc(C2=NNC(c3ccccc3)C2)cc1 (stereo not drawn)	54.2	46	> 100	30.4	> 100	89.2	59.2	> 100	40.2	–	> 100
CCOC(=O)CNc1c(OCc2ccccc2)c(=O)c1=O	> 100	> 100	> 100	> 100	> 100	–	> 100	> 100	> 100	> 100	> 100
Cc1ccc2c(c1)C(C(=O)N[C@@H]1C(=O)N3[C@@H]1SC(C)(C)[C@@H]3C(=O)O)OCCC2 (stereo partly drawn)	> 100	–	> 100	> 100	> 100	> 100	> 100	> 100	> 100	> 100	> 100
O=Cc1ccc2c(c1)CC1(Cc3ccccc3C1)C2	65.7	36.3	53.4	> 100	–	33.2	34.4	–	44.1	25.5	–
CC(=O)OCC12C(=O)C[C@@H](C)C3(CC(c4ccoc4)OC3=O)C1CCC(OC(C)=O)C21CO1 (stereo partly drawn)	> 100	> 100	> 100	> 100	> 100	> 100	> 100	> 100	> 100	–	> 100
CCOC(=O)C(=Cc1[nH]c2ccccc2c1-c1c[nH]c2ccccc12)C(=O)OCC	24.5	34.4	23.8	23.3	30.5	39.1	29.4	28.3	23.8	–	26.4
O=C1/C(=N/O)Cc2c(Br)ccc(Br)c21	> 100	–	> 100	> 100	> 100	> 100	–	–	> 100	> 100	> 100
CSc1ncnc2c1ncn2C1CC(Oc2ccc(C)cc2)C(COc2ccc(C)cc2)O1 (stereo not drawn)	> 100	> 100	> 100	–	> 100	> 100	> 100	> 100	> 100	> 100	> 100
O=C(NI1OC(=O)c2ccccc21)c1ccc(Cl)cc1	> 100	–	> 100	> 100	> 100	> 100	> 100	–	> 100	> 100	> 100
Cc1ccc(N=Nc2c(O)ccc3cc(S(=O)(=O)O)cc(S(=O)(=O)O)c23)cc1	> 100	> 100	–	> 100	> 100	> 100	> 100	> 100	> 100	> 100	> 100
COc1ccc(C2OC[C@H]3O[C@@H](OCc4ccccc4)[C@H](O)[C@@H](O)[C@@H]3O2)cc1 (stereo partly drawn)	> 100	–	> 100	> 100	> 100	> 100	> 100	> 100	> 100	> 100	> 100
